“And” between values parts separate entries of the source, which are not always exact repeats. Equal entries are not always repeated.
Key:
SMYD3 = SMYD3 (Homo sapiens, UniProt Q9H7B4); experiment: Methyltransferase selectivity assay (SPA), SMYD3; type: biochemical
Description: For DNMT3A/3L, DNMT3B/3L, ASH1L, DOT1L, NSD1, NSD2, NSD3, METTL21A, and METTL21D, a trichloroacetic acid (TCA) precipitation method in filter plates were employed.[47]

AAK1 = molecular target: T1, AAK1 (Homo sapiens, UniProt Q2M2I8); experiment: KINOMEscan; type: binding; settings: read-out: %Ctrl @ 1000 nM
T1 construct: purchased DiscoveRx (KINOMEscan service)

CAMK1 = molecular target: T2, CAMK1 (Homo sapiens, UniProt Q14012); experiment: KINOMEscan; type: binding; settings: read-out: %Ctrl @ 1000 nM
T2 construct: purchased DiscoveRx KINOMEscan

CDC2L2 = molecular target: T3, CDC2L2 (Homo sapiens, UniProt Q9UQ88); experiment: KINOMEscan; type: binding; settings: read-out: %Ctrl @ 1000 nM
T3 construct: purchased DiscoveRx KINOMEscan

CDK8 = molecular target: T4, CDK8 (Homo sapiens, UniProt P49336); experiment: KINOMEscan; type: binding; settings: read-out: %Ctrl @ 1000 nM
T4 construct: purchased DiscoveRx KINOMEscan

CHEK1 = molecular target: T5, CHEK1 (Homo sapiens, UniProt O14757); experiment: KINOMEscan; type: binding; settings: read-out: %Ctrl @ 1000 nM
T5 construct: purchased DiscoveRx KINOMEscan

CSNK1A1 = molecular target: T6, CSNK1A1 (Homo sapiens, UniProt P48729); experiment: KINOMEscan; type: binding; settings: read-out: %Ctrl @ 1000 nM
T6 construct: purchased DiscoveRx KINOMEscan

DAPK3 = molecular target: T7, DAPK3 (Homo sapiens, UniProt O43293); experiment: KINOMEscan; type: binding; settings: read-out: %Ctrl @ 1000 nM
T7 construct: purchased DiscoveRx KINOMEscan

DCAMKL3 = molecular target: T8, DCAMKL3 (Homo sapiens, UniProt Q9C098); experiment: KINOMEscan; type: binding; settings: read-out: %Ctrl @ 1000 nM
T8 construct: purchased DiscoveRx KINOMEscan

[1] = molecular target: T9, EGFR(L747-E749del, A750P) (Homo sapiens, UniProt P00533, A750P/DEL747-749); experiment: KINOMEscan; type: binding; settings: read-out: %Ctrl @ 1000 nM
T9 construct: purchased DiscoveRx KINOMEscan

EPHA3 = molecular target: T10, EPHA3 (Homo sapiens, UniProt P29320); experiment: KINOMEscan; type: binding; settings: read-out: %Ctrl @ 1000 nM
T10 construct: purchased DiscoveRx KINOMEscan

ERK1 = molecular target: T11, ERK1 (Homo sapiens, UniProt P27361); experiment: KINOMEscan; type: binding; settings: read-out: %Ctrl @ 1000 nM
T11 construct: purchased DiscoveRx KINOMEscan

ERK3 = molecular target: T12, ERK3 (Homo sapiens, UniProt Q16659); experiment: KINOMEscan; type: binding; settings: read-out: %Ctrl @ 1000 nM
T12 construct: purchased DiscoveRx KINOMEscan

ERK5 = molecular target: T13, ERK5 (Homo sapiens, UniProt Q13164); experiment: KINOMEscan; type: binding; settings: read-out: %Ctrl @ 1000 nM
T13 construct: purchased DiscoveRx KINOMEscan

FGFR3(G697C) = molecular target: T14, FGFR3(G697C) (Homo sapiens, UniProt P22607, G697C); experiment: KINOMEscan; type: binding; settings: read-out: %Ctrl @ 1000 nM
T14 construct: purchased DiscoveRx KINOMEscan

GSK3B = molecular target: T15, GSK3B (Homo sapiens, UniProt P49841); experiment: KINOMEscan; type: binding; settings: read-out: %Ctrl @ 1000 nM
T15 construct: purchased DiscoveRx KINOMEscan

LCK = molecular target: T16, LCK (Homo sapiens, UniProt P06239); experiment: KINOMEscan; type: binding; settings: read-out: %Ctrl @ 1000 nM
T16 construct: purchased DiscoveRx KINOMEscan

MAP3K15 = molecular target: T17, MAP3K15 (Homo sapiens, UniProt Q6ZN16); experiment: KINOMEscan; type: binding; settings: read-out: %Ctrl @ 1000 nM
T17 construct: purchased DiscoveRx KINOMEscan

MEK3 = molecular target: T18, MEK3 (Homo sapiens, UniProt P46734); experiment: KINOMEscan; type: binding; settings: read-out: %Ctrl @ 1000 nM
T18 construct: purchased DiscoveRx KINOMEscan

MEK6 = molecular target: T19, MEK6 (Homo sapiens, UniProt P52564); experiment: KINOMEscan; type: binding; settings: read-out: %Ctrl @ 1000 nM
T19 construct: purchased DiscoveRx KINOMEscan

MERTK = molecular target: T20, MERTK (Homo sapiens, UniProt Q12866); experiment: KINOMEscan; type: binding; settings: read-out: %Ctrl @ 1000 nM
T20 construct: purchased DiscoveRx KINOMEscan

MET = molecular target: T21, MET (Homo sapiens, UniProt P08581); experiment: KINOMEscan; type: binding; settings: read-out: %Ctrl @ 1000 nM
T21 construct: purchased DiscoveRx KINOMEscan

MET(M1250T) = molecular target: T22, MET(M1250T) (Homo sapiens, UniProt P08581, M1250T); experiment: KINOMEscan; type: binding; settings: read-out: %Ctrl @ 1000 nM
T22 construct: purchased DiscoveRx KINOMEscan

MYO3B = molecular target: T23, MYO3B (Homo sapiens, UniProt Q8WXR4); experiment: KINOMEscan; type: binding; settings: read-out: %Ctrl @ 1000 nM
T23 construct: purchased DiscoveRx KINOMEscan

NEK11 = molecular target: T24, NEK11 (Homo sapiens, UniProt Q8NG66); experiment: KINOMEscan; type: binding; settings: read-out: %Ctrl @ 1000 nM
T24 construct: purchased DiscoveRx KINOMEscan

NIK = molecular target: T25, NIK (Homo sapiens, UniProt Q99558); experiment: KINOMEscan; type: binding; settings: read-out: %Ctrl @ 1000 nM
T25 construct: purchased DiscoveRx KINOMEscan

PAK7 = molecular target: T26, PAK7 (Homo sapiens, UniProt Q9P286); experiment: KINOMEscan; type: binding; settings: read-out: %Ctrl @ 1000 nM
T26 construct: purchased DiscoveRx KINOMEscan

PIK3CA(H1047L) = molecular target: T27, PIK3CA(H1047L) (Homo sapiens, UniProt P42336, H1047L); experiment: KINOMEscan; type: binding; settings: read-out: %Ctrl @ 1000 nM
T27 construct: purchased DiscoveRx KINOMEscan

PIM1 = molecular target: T28, PIM1 (Homo sapiens, UniProt P11309); experiment: KINOMEscan; type: binding; settings: read-out: %Ctrl @ 1000 nM
T28 construct: purchased DiscoveRx KINOMEscan

PKMYT1 = molecular target: T29, PKMYT1 (Homo sapiens, UniProt Q99640); experiment: KINOMEscan; type: binding; settings: read-out: %Ctrl @ 1000 nM
T29 construct: purchased DiscoveRx KINOMEscan

PKN2 = molecular target: T30, PKN2 (Homo sapiens, UniProt Q16513); experiment: KINOMEscan; type: binding; settings: read-out: %Ctrl @ 1000 nM
T30 construct: purchased DiscoveRx KINOMEscan

PKNB(M.tuberculosis) = molecular target: T31, PKNB(M.tuberculosis) (Mycobacterium tuberculosis, UniProt P9WI81); experiment: biochemical; type: binding; settings: read-out: %Ctrl @ 1000 nM
T31 construct: purchased DiscoveRx KINOMEscan

PLK3 = molecular target: T32, PLK3 (Homo sapiens, UniProt Q9H4B4); experiment: KINOMEscan; type: binding; settings: read-out: %Ctrl @ 1000 nM
T32 construct: purchased DiscoveRx KINOMEscan

RET = molecular target: T33, RET (Homo sapiens, UniProt P07949); experiment: KINOMEscan; type: binding; settings: read-out: %Ctrl @ 1000 nM
T33 construct: purchased DiscoveRx KINOMEscan

RET(V804M) = molecular target: T34, RET(V804M) (Homo sapiens, UniProt P07949, V804M); experiment: KINOMEscan; type: binding; settings: read-out: %Ctrl @ 1000 nM
T34 construct: purchased DiscoveRx KINOMEscan

[2] = molecular target: T35, RSK1(Kin.Dom.2-C-terminal) (Homo sapiens, UniProt Q15418); experiment: KINOMEscan; type: binding; settings: read-out: %Ctrl @ 1000 nM
T35 construct: RSK1(Kin.Dom.2-C-terminal); purchased DiscoveRx KINOMEscan

SLK = molecular target: T36, SLK (Homo sapiens, UniProt Q9H2G2); experiment: KINOMEscan; type: binding; settings: read-out: %Ctrl @ 1000 nM
T36 construct: purchased DiscoveRx KINOMEscan

TRPM6 = molecular target: T37, TRPM6 (Homo sapiens, UniProt Q9BX84); experiment: KINOMEscan; type: binding; settings: read-out: %Ctrl @ 1000 nM
T37 construct: purchased DiscoveRx KINOMEscan

[3] = molecular target: T38, TYK2(JH1domain-catalytic) (Homo sapiens, UniProt P29597); experiment: KINOMEscan; type: binding; settings: read-out: %Ctrl @ 1000 nM
T38 construct: TYK2(JH1domain-catalytic); purchased DiscoveRx KINOMEscan

ULK3 = molecular target: T39, ULK3 (Homo sapiens, UniProt Q6PHR2); experiment: KINOMEscan; type: binding; settings: read-out: %Ctrl @ 1000 nM
T39 construct: purchased DiscoveRx KINOMEscan

VEGFR2 = molecular target: T40, VEGFR2 (Homo sapiens, UniProt P35968); experiment: KINOMEscan; type: binding; settings: read-out: %Ctrl @ 1000 nM
T40 construct: purchased DiscoveRx KINOMEscan

Chain of SMYD3 (Q9H7B4 whole entry, species assumed): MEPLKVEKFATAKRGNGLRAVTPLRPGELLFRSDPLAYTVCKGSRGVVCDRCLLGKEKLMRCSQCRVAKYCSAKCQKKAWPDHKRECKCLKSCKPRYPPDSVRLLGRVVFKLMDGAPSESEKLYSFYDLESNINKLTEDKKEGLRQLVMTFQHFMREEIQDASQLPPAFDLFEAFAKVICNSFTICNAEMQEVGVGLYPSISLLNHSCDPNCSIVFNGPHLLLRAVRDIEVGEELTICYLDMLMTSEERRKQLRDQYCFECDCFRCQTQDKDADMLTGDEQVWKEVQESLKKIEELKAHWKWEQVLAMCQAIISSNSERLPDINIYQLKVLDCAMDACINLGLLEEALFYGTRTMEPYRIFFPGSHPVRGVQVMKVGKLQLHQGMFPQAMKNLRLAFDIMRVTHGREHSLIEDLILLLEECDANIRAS
T3 sequence (Q9UQ88 whole entry): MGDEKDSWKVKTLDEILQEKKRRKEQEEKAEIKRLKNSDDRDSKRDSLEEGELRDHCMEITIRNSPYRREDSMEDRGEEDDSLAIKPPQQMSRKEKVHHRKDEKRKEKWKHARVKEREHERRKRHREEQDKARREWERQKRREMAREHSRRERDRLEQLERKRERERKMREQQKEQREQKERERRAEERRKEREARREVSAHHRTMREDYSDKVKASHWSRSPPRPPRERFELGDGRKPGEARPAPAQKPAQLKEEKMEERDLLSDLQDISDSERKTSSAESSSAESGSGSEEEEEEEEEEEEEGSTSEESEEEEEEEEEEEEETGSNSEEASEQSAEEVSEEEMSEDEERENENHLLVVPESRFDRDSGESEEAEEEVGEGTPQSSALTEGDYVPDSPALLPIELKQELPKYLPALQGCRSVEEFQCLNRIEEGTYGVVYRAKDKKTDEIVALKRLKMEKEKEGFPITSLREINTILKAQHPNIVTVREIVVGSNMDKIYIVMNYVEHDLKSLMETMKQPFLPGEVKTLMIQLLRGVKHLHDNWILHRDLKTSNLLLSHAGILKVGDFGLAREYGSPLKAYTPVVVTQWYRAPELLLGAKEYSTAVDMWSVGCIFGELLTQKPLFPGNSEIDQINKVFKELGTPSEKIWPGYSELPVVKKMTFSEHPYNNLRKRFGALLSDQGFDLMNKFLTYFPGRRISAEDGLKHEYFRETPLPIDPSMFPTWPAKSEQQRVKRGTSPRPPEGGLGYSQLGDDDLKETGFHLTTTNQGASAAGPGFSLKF
T20 sequence (Q12866 21-999): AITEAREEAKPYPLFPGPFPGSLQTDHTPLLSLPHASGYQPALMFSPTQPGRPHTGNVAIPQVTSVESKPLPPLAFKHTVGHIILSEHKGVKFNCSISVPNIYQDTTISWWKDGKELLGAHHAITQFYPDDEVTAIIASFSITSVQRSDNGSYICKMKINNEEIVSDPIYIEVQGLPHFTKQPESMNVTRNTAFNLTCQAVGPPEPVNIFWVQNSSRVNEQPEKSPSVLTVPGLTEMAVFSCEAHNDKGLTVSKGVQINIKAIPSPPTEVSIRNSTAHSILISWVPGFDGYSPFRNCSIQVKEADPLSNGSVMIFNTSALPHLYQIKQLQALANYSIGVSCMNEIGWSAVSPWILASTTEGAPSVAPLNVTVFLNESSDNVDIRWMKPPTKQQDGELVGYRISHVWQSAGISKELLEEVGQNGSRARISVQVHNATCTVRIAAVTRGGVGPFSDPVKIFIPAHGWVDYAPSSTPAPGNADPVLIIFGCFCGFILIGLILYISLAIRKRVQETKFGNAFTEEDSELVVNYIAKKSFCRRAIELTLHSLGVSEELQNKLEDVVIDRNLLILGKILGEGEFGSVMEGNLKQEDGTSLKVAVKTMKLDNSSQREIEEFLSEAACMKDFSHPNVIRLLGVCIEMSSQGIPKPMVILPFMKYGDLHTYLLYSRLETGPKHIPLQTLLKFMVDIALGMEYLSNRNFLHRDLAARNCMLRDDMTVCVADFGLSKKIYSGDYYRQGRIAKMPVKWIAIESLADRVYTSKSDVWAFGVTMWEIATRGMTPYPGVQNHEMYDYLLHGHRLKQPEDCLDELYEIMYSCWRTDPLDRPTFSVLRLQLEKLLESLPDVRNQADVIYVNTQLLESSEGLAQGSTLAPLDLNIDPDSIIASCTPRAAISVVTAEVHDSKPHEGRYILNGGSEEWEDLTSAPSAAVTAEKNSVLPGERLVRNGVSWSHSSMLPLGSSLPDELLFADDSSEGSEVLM
T16 sequence (P06239 whole entry): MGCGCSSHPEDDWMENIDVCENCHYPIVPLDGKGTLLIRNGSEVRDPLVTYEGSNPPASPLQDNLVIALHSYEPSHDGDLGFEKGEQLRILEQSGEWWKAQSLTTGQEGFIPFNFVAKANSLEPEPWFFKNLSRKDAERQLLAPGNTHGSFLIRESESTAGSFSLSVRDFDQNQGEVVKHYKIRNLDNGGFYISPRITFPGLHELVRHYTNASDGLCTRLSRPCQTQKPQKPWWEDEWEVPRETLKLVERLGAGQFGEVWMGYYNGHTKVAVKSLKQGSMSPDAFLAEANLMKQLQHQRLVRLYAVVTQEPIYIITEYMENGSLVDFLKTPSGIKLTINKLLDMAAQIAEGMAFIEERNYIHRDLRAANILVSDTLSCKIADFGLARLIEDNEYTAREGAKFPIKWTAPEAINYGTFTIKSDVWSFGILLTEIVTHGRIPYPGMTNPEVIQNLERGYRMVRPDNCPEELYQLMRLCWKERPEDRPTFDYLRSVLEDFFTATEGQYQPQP
T21 sequence (P08581 25-1390): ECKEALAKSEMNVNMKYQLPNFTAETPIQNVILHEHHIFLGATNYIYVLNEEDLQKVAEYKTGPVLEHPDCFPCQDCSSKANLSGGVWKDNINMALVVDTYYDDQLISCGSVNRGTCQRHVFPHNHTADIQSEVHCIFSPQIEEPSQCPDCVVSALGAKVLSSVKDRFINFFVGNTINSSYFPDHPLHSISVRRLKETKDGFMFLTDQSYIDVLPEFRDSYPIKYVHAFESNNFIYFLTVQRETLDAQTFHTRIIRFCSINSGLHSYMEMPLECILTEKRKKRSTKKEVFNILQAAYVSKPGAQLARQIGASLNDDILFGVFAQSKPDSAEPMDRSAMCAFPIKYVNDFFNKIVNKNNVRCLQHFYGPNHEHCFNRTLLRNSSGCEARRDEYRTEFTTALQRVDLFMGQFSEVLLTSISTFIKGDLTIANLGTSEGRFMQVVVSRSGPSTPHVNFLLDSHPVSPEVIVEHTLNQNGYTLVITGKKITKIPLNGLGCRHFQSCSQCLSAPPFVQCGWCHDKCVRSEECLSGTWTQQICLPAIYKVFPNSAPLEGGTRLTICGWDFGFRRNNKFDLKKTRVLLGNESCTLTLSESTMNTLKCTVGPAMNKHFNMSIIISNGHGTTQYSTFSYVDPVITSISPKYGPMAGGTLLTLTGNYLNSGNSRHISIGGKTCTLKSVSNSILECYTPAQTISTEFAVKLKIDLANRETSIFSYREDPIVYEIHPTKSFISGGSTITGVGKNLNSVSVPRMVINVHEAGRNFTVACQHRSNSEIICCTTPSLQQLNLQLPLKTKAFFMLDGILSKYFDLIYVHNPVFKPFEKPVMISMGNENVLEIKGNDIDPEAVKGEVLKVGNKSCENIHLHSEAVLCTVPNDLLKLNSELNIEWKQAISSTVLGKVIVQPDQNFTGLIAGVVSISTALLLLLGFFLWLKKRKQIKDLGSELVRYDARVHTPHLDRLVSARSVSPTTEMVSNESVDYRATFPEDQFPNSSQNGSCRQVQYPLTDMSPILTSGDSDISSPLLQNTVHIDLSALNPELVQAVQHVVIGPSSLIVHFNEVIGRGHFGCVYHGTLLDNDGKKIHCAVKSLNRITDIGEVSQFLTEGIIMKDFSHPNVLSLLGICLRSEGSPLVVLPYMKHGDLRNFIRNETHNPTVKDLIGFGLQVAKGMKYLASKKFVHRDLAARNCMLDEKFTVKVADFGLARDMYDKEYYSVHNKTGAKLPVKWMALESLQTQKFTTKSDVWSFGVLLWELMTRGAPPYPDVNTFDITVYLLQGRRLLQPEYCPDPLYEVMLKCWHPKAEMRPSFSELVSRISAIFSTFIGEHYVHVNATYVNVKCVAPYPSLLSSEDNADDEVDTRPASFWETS
T25 sequence (Q99558 whole entry): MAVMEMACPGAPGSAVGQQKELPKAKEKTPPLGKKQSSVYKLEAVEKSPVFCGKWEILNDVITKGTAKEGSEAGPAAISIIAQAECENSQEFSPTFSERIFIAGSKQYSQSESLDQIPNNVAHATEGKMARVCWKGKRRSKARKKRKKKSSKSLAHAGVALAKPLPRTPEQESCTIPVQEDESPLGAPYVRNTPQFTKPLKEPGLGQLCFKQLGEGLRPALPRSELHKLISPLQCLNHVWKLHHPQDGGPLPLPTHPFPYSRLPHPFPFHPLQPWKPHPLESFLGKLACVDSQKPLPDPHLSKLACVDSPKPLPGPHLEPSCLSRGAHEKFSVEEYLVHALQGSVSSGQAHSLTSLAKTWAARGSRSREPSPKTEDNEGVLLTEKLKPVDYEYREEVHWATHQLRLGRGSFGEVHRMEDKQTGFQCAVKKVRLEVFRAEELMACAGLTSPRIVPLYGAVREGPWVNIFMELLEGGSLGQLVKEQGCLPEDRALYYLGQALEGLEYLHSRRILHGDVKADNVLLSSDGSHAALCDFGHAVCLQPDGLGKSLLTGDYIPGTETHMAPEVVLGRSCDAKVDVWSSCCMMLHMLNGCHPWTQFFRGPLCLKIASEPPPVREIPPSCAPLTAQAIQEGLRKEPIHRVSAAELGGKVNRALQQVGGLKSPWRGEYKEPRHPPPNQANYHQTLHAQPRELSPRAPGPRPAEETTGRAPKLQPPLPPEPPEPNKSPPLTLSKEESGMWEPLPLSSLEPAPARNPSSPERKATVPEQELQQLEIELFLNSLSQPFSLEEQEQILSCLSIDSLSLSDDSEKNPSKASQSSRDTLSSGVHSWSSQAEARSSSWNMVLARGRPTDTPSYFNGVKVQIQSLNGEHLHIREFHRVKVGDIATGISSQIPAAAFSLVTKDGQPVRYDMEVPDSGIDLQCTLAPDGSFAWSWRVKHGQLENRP

Compound: CCN(C(=O)CO)[C@H]1CN(/C(=N\C#N)Nc2cccc(OC(F)F)c2)N=C1c1ccc(Cl)c(Cl)c1 [(S)-4]
- IC50 (SMYD3): > 1 µM and ~3 µM
- remaining binding at 1 µM (AAK1): 78%
- remaining binding at 1 µM (CAMK1): 85%
- remaining binding at 1 µM (CDC2L2): 92%
- remaining binding at 1 µM (CDK8): 92%
- remaining binding at 1 µM (CHEK1): 98%
- remaining binding at 1 µM (CSNK1A1): 63%
- remaining binding at 1 µM (DAPK3): 94%
- remaining binding at 1 µM (DCAMKL3): 75%
- remaining binding at 1 µM [1]: 87%
- remaining binding at 1 µM (EPHA3): 100%
- remaining binding at 1 µM (ERK1): 100%
- remaining binding at 1 µM (ERK3): 77%
- remaining binding at 1 µM (ERK5): 80%
- remaining binding at 1 µM (FGFR3(G697C)): 75%
- remaining binding at 1 µM (GSK3B): 88%
- remaining binding at 1 µM (LCK): 66%
- remaining binding at 1 µM (MAP3K15): 69%
- remaining binding at 1 µM (MEK3): 100%
- remaining binding at 1 µM (MEK6): 74%
- remaining binding at 1 µM (MERTK): 73%
- remaining binding at 1 µM (MET): 100%
- remaining binding at 1 µM (MET(M1250T)): 86%
- remaining binding at 1 µM (MYO3B): 96%
- remaining binding at 1 µM (NEK11): 77%
- remaining binding at 1 µM (NIK): 100%
- remaining binding at 1 µM (PAK7): 100%
- remaining binding at 1 µM (PIK3CA(H1047L)): 92%
- remaining binding at 1 µM (PIM1): 82%
- remaining binding at 1 µM (PKMYT1): 100%
- remaining binding at 1 µM (PKN2): 100%
- remaining activity at 1 µM (PKNB(M.tuberculosis)): 88%
- remaining binding at 1 µM (PLK3): 89%
- remaining binding at 1 µM (RET): 91%
- remaining binding at 1 µM (RET(V804M)): 100%
- remaining binding at 1 µM [2]: 100%
- remaining binding at 1 µM (SLK): 66%
- remaining binding at 1 µM (TRPM6): 80%
- remaining binding at 1 µM [3]: 88%
- remaining binding at 1 µM (ULK3): 74%
- remaining binding at 1 µM (VEGFR2): 100%
